Assays:
DS male mice [1] = experiment: Rotarod performance activity; assay type: in vivo; conditions: mouse falling from rod (5 rotations per minute) within less than 2 minutes
Protocol: 3. Rotarod performance activity:
(§1) This test was measured on DS male mice.
The mouse was put on a scraped rod of wood, 3 cm in diameter, turning at the rate of five rotations per minute. The mice that could remain on the rod for 3 or more minutes in successive trails were selected and placed in a group of 10 mice for each dose. If the mouse fell down from the rod within less than 2 minutes, the test compound was considered to be effective. Results were shown by ED50 [Dunham, et al.: J. Am. Pharm. Assoc., 46, 208 (1957)].

DS male mice [2] = experiment: Anti-pentylenetetrazol activity; conditions: for times more potent than diazepam in the anti-pentylenetetrazol activity: relative to diazepam (Compound No. 5); for Anti-pentylenetetrazol activity, ED50: test compound given orally 60 minutes prior to 125 mg/kg s.c. pentylenetetrazol, complete protection against mortality, observed 2 hours
Protocol: This test was measured on a group of 10 DS male mice. […] In this test, the test compound was given orally 60 minutes prior to the administration of pentylenetetrazol. The observation was made for 2 hours after the administration of pentylenetetrazol. The criterion of anticonvulsant activity was determined as being complete protection against mortality. The convulsions were disregarded. Results were shown as ED50 [Goodman, et al.: J. Pharmacol., 108, 168 (1953)].

DS male mice [3] = experiment: Taming activity (inhibition of electroshock-induced fighting); assay type: in vivo; conditions: for Taming activity ED50: administered 60 minutes prior to experiment, inhibition of fighting responses, 5 pairs of mice; for times more potent than diazepam in the taming activity: relative to diazepam (Compound No. 5)
Protocol: as §1
These pairs of mice were selected in the morning and used for drug test in the afternoon. The test compound was administered to both mice of the pairs 60 minutes prior to the experiment. Results were obtained as the mean percentage of inhibition of fighting responses in a group of 5 pairs and shown by ED50 [Tedeschi, et al.: J. Pharmacol Exp. Thev., 125, 28-34 (1959)].

DS male mice [4] = conditions: oral single dose, observed for 72 hours, Bliss method
Protocol: The test compound was orally administered to DS male mice in different single doses. For each dose, 10 mice were used, their weight ranging from 20 to 23 grams. […] The mortality was calculated by the Bliss method [Bliss: Ann.

[5] = relative to chlordiazepoxide (Compound No. 4)

Compound	Rotarod performance ED50 (DS male mice [1]) [mg/kg]	times more potent than diazepam in the anti-pentylenetetrazol activity (DS male mice [2]) [times]	Anti-pentylenetetrazol activity, ED50 (DS male mice [2]) [mg/kg]	Taming activity ED50 (DS male mice [3]) [mg/kg]	times more potent than diazepam in the taming activity (DS male mice [3]) [times]	Acute toxicity LD50 (DS male mice [4]) [mg/kg]	times more potent than chlordiazepoxide in the anti-pentylenetetrazol activity (DS male mice [2]; [5]) [times]	times more potent than chlordiazepoxide in the taming activity (DS male mice [3]; [5]) [times]
CNC1=Nc2ccc(Cl)cc2C(c2ccccc2)=[N+]([O-])C1 [Compound No. 4, Chlordiazepoxide]	50.0							
CN1C(=O)CN=C(c2ccccc2)c2cc(Cl)ccc21 [Compound No. 5, Diazepam]	9.03							
CN(C(=O)CNC(=O)CN)c1ccc(Cl)cc1C(=O)c1ccccc1Cl.O [Compound No. 2, 2-o-chlorobenzoyl-4-chloro-N-methyl-N^α -glycyl-glycinanilide hydrate]		2 to 4	0.58	3.0	2 to 4			
CN(C(=O)CNC(=O)CN)c1ccc(Cl)cc1C(=O)c1ccccc1F.Cl [Compound No. 3, 2-o-fluorobenzoyl-4-chloro-N-methyl-N^α -glycyl-glycinanilide hydrochloride]	17.0	2 to 4	0.33	1.6	2 to 4	> 1000		
CN(C(=O)CNC(=O)CN)c1ccc(Cl)cc1C(=O)c1ccccc1 [Compound No. 1, 2-benzoyl-4-chloro-N-methyl-N^α -glycyl-glycinanilide]			1.0				2 to 3	2 to 3

Source: patent US4076703A, “Dipeptide derivatives and their production” (Shionogi & Co., Ltd., priority 1974, dated 1978)
